# Measurements published in patent US12129237B2, “Substituted diaminocarboxamide and diaminocarbonitrile pyrimidines, compositions thereof, and methods of treatment therewith” (SIGNAL PHARMACEUTICALS, LLC, priority 2011, dated 2024).
# Target: T1, JNK1 (Homo sapiens, UniProt P45983)
# T1 construct: purchased Carna Biosciences
# Experiment: JNK1 biochemical assays (one or more of: time resolved fluorescence, Z'-LYTE Cascade, radioactive)
# Settings: one or more of the JNK1 biochemical assays; read-out: Act. Level (JNK1 IC50 activity level)
# T1 sequence (P45983 whole entry): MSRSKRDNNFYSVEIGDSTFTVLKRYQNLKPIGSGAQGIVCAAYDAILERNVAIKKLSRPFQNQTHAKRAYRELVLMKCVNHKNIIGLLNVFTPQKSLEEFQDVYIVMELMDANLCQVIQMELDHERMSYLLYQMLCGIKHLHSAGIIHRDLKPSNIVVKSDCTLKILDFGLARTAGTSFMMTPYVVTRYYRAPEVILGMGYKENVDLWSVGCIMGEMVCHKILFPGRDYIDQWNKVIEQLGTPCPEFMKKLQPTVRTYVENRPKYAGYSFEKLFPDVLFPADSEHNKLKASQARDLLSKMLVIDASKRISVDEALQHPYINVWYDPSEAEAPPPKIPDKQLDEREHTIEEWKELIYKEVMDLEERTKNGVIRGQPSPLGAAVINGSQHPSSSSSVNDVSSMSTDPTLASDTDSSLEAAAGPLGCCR
structure (smiles),measurement,value
"CC(C)C(C)(C)Nc1nc(N[C@H]2CC[C@H](O)CC2)ncc1C(N)=O [Example 275, 4-(2,3-dimethylbutan-2-ylamino)-2-((1r,4r)-4-hydroxycyclohexylamino)pyrimidine-5-carboxamide]",IC50,< 200 nM
"CCO[C@H]1CC[C@H](Nc2ncc(C(N)=O)c(N[C@@H](C)C(C)(C)C)n2)CC1 [Example 276, 4-((S)-3,3-dimethylbutan-2-ylamino)-2-((1r,4S)-4-ethoxycyclohexylamino)pyrimidine-5-carboxamide]",IC50,< 200 nM
"CCO[C@H]1CC[C@H](Nc2ncc(C(N)=O)c(N[C@H](C)C(C)(C)C)n2)CC1 [Example 277, 4-((R)-3,3-dimethylbutan-2-ylamino)-2-((1r,4R)-4-ethoxycyclohexylamino)pyrimidine-5-carboxamide]",IC50,< 200 nM
"CO[C@H]1CC[C@H](Nc2ncc(C(N)=O)c(N[C@@H](C)C(C)(C)C)n2)CC1 [Example 278, 4-((S)-3,3-dimethylbutan-2-ylamino)-2-((1r,4S)-4-methoxycyclohexylamino)pyrimidine-5-carboxamide]",IC50,< 200 nM
"CO[C@H]1CC[C@H](Nc2ncc(C(N)=O)c(N[C@H](C)C(C)(C)C)n2)CC1 [Example 279, 4-((R)-3,3-dimethylbutan-2-ylamino)-2-((1r,4R)-4-methoxycyclohexylamino)pyrimidine-5-carboxamide]",IC50,< 200 nM
"C[C@H](Nc1nc(N[C@H]2CC[C@H](O)CC2)ncc1C(N)=O)C(C)(C)C [Example 280, 4-((S)-3,3-dimethylbutan-2-ylamino)-2-((1r,4S)-4-hydroxycyclohexylamino)pyrimidine-5-carboxamide]",IC50,< 200 nM
"C[C@@H](Nc1nc(N[C@H]2CC[C@H](O)CC2)ncc1C(N)=O)C(C)(C)C [Example 281, 4-((R)-3,3-dimethylbutan-2-ylamino)-2-((1r,4R)-4-hydroxycyclohexylamino)pyrimidine-5-carboxamide]",IC50,< 200 nM
"CCO[C@H]1CC[C@H](Nc2ncc(C(N)=O)c(N[C@@H](C)C(C)C)n2)CC1 [Example 282, 2-((1r,4S)-4-ethoxycyclohexylamino)-4-((S)-3-methylbutan-2-ylamino)pyrimidine-5-carboxamide]",IC50,< 200 nM
"CO[C@H]1CC[C@H](Nc2ncc(C(N)=O)c(N[C@@H](C)C(C)C)n2)CC1 [Example 283, 2-((1r,4S)-4-methoxycyclohexylamino)-4-((S)-3-methylbutan-2-ylamino)pyrimidine-5-carboxamide]",IC50,< 200 nM
"CC(C)[C@H](C)Nc1nc(N[C@H]2CC[C@H](O)CC2)ncc1C(N)=O [Example 284, 2-((1r,4S)-4-hydroxycyclohexylamino)-4-((S)-3-methylbutan-2-ylamino)pyrimidine-5-carboxamide]",IC50,< 200 nM
"C[C@@H]1CC[C@@H](Nc2nc(NC3CCC3)ncc2C(N)=O)C[C@H]1O [Example 285, 2-(cyclobutylamino)-4-((1R,3R,4R)-3-hydroxy-4-methylcyclohexylamino)pyrimidine-5-carboxamide]",IC50,< 200 nM
"CCC(C)(C)Nc1ncc(C(N)=O)c(N[C@@H]2CC[C@@H](C)[C@H](O)C2)n1 [Example 286, 4-((1R,3R,4R)-3-hydroxy-4-methylcyclohexylamino)-2-(tert-pentylamino)pyrimidine-5-carboxamide]",IC50,< 200 nM
"C[C@@H]1CC[C@@H](Nc2nc(NC3(C)CCC3)ncc2C(N)=O)C[C@H]1O [Example 287, 4-((1R,3R,4R)-3-hydroxy-4-methylcyclohexylamino)-2-(1-methylcyclobutylamino)pyrimidine-5-carboxamide]",IC50,< 200 nM
"CC(C)(C)Nc1nc(NC23CCC(F)(CC2)CC3)ncc1C(N)=O [Example 289, 4-(tert-butylamino)-2-(4-fluorobicyclo[2.2.2]octan-1-ylamino)pyrimidine-5-carboxamide]",IC50,< 200 nM
"CCO[C@H]1CC[C@H](Nc2ncc(C(N)=O)c(N[C@H](C)C(C)C)n2)CC1 [Example 290, 2-((1r,4R)-4-ethoxycyclohexylamino)-4-((R)-3-methylbutan-2-ylamino)pyrimidine-5-carboxamide]",IC50,< 200 nM
"CO[C@H]1CC[C@H](Nc2ncc(C(N)=O)c(N[C@H](C)C(C)C)n2)CC1 [Example 291, 2-((1r,4R)-4-methoxycyclohexylamino)-4-((R)-3-methylbutan-2-ylamino)pyrimidine-5-carboxamide]",IC50,< 200 nM
"CC(C)[C@@H](C)Nc1nc(N[C@H]2CC[C@H](O)CC2)ncc1C(N)=O [Example 292, 2-((1r,4R)-4-hydroxycyclohexylamino)-4-((R)-3-methylbutan-2-ylamino)pyrimidine-5-carboxamide]",IC50,< 200 nM
"CCO[C@H]1CC[C@H](Nc2ncc(C(N)=O)c(N[C@@H](C)C3CCC3)n2)CC1 [Example 293, 4-((S)-1-cyclobutylethylamino)-2-((1r,4S)-4-ethoxycyclohexylamino)pyrimidine-5-carboxamide]",IC50,< 200 nM
"CCO[C@H]1CC[C@H](Nc2ncc(C(N)=O)c(N[C@H](C)C3CCC3)n2)CC1 [Example 294, 4-((R)-1-cyclobutylethylamino)-2-((1r,4R)-4-ethoxycyclohexylamino)pyrimidine-5-carboxamide]",IC50,1000 to 10000 nM
"CO[C@H]1CC[C@H](Nc2ncc(C(N)=O)c(N[C@@H](C)C3CCC3)n2)CC1 [Example 295, 4-((S)-1-cyclobutylethylamino)-2-((1r,4S)-4-methoxycyclohexylamino)pyrimidine-5-carboxamide]",IC50,< 200 nM
"CO[C@H]1CC[C@H](Nc2ncc(C(N)=O)c(N[C@H](C)C3CCC3)n2)CC1 [Example 296, 4-((R)-1-cyclobutylethylamino)-2-((1r,4R)-4-methoxycyclohexylamino)pyrimidine-5-carboxamide]",IC50,1000 to 10000 nM
"C[C@H](Nc1nc(N[C@H]2CC[C@H](O)CC2)ncc1C(N)=O)C1CCC1 [Example 297, 4-((S)-1-cyclobutylethylamino)-2-((1r,4S)-4-hydroxycyclohexylamino)pyrimidine-5-carboxamide]",IC50,< 200 nM
"C[C@@H](Nc1nc(N[C@H]2CC[C@H](O)CC2)ncc1C(N)=O)C1CCC1 [Example 298, 4-((R)-1-cyclobutylethylamino)-2-((1r,4R)-4-hydroxycyclohexylamino)pyrimidine-5-carboxamide]",IC50,< 200 nM
"CC(C)(C)Nc1nc(N[C@@H]2CCC[C@@H](O)C2)ncc1C(N)=O [Example 299, 4-(tert-butylamino)-2-((1R,3R)-3-hydroxycyclohexylamino)pyrimidine-5-carboxamide]",IC50,< 200 nM
"CC(C)(C)Nc1nc(N[C@H]2CCCOC2)ncc1C(N)=O [Example 300, (S)-4-(tert-butylamino)-2-(tetrahydro-2H-pyran-3-ylamino)pyrimidine-5-carboxamide]",IC50,< 200 nM
"CC(C)(C)Nc1nc(N[C@@H]2CCCOC2)ncc1C(N)=O [Example 301, (R)-4-(tert-butylamino)-2-(tetrahydro-2H-pyran-3-ylamino)pyrimidine-5-carboxamide]",IC50,< 200 nM
"CC(C)(C)Nc1nc(N[C@H]2CC[C@](C)(O)CC2)ncc1C(N)=O [Example 302, 4-(tert-butylamino)-2-((1r,4r)-4-hydroxy-4-methylcyclohexylamino)pyrimidine-5-carboxamide]",IC50,< 200 nM
"CC(C)(C)Nc1nc(NC2COC2)ncc1C(N)=O [Example 303, 4-(tert-butylamino)-2-(oxetan-3-ylamino)pyrimidine-5-carboxamide]",IC50,200 to 800 nM
"CC(C)(C)Nc1nc(N[C@H]2CC[C@H](OC3CC3)CC2)ncc1C(N)=O [Example 304, 4-(tert-butylamino)-2-((1r,4r)-4-cyclopropoxycyclohexylamino)pyrimidine-5-carboxamide]",IC50,< 200 nM
"CC(C)(C)Nc1nc(N[C@H]2CCC[C@H](O)C2)ncc1C(N)=O [Example 305, 4-(tert-butylamino)-2-((1S,3S)-3-hydroxycyclohexylamino)pyrimidine-5-carboxamide]",IC50,< 200 nM
"CC(C)(C)Nc1nc(N[C@H]2CCC[C@@H](O)C2)ncc1C(N)=O [Example 306, 4-(tert-butylamino)-2-((1S,3R)-3-hydroxycyclohexylamino)pyrimidine-5-carboxamide]",IC50,< 200 nM
"CC(C)(C)Nc1nc(N[C@@H]2CCC[C@H](O)C2)ncc1C(N)=O [Example 307, 4-(tert-butylamino)-2-((1R,3S)-3-hydroxycyclohexylamino)pyrimidine-5-carboxamide]",IC50,< 200 nM
"CN(C)C(=O)[C@H]1CC[C@H](Nc2ncc(C(N)=O)c(NC(C)(C)C)n2)CC1 [Example 308, 4-(tert-butylamino)-2-((1r,4r)-4-(dimethylcarbamoyl)cyclohexylamino)pyrimidine-5-carboxamide]",IC50,< 200 nM
"CCO[C@H]1CC[C@H](Nc2ncc(C(N)=O)c(NC(C)(C)CO)n2)CC1 [Example 309, 2-((1r,4r)-4-ethoxycyclohexylamino)-4-(1-hydroxy-2-methylpropan-2-ylamino)pyrimidine-5-carboxamide]",IC50,< 200 nM
"CO[C@H]1CC[C@H](Nc2ncc(C(N)=O)c(NC(C)(C)CO)n2)CC1 [Example 310, 4-(1-hydroxy-2-methylpropan-2-ylamino)-2-((1r,4r)-4-methoxycyclohexylamino)pyrimidine-5-carboxamide]",IC50,< 200 nM
"CC(C)(CO)Nc1nc(N[C@H]2CC[C@H](O)CC2)ncc1C(N)=O [Example 311, 4-(1-hydroxy-2-methylpropan-2-ylamino)-2-((1r,4r)-4-hydroxycyclohexylamino)pyrimidine-5-carboxamide]",IC50,< 200 nM
"C[C@@H]1CC[C@@H](Nc2nc(NC3COC3)ncc2C(N)=O)C[C@H]1O [Example 312, 4-((1R,3R,4R)-3-hydroxy-4-methylcyclohexylamino)-2-(oxetan-3-ylamino)pyrimidine-5-carboxamide]",IC50,< 200 nM
"CCO[C@H]1CC[C@H](Nc2ncc(C(N)=O)c(N[C@H]3C[C@H](C)C3)n2)CC1 [Example 313, 2-((1r,4r)-4-ethoxycyclohexylamino)-4-((1r,3r)-3-methylcyclobutylamino)pyrimidine-5-carboxamide]",IC50,< 200 nM
"CCO[C@H]1CC[C@H](Nc2ncc(C(N)=O)c(NC(C)(C)C3CC3)n2)CC1 [Example 314, 4-(2-cyclopropylpropan-2-ylamino)-2-((1r,4r)-4-ethoxycyclohexylamino)pyrimidine-5-carboxamide]",IC50,< 200 nM
